{"source": "patent US20060009478A1", "about": "“Methods for the treatment of back pain” (priority 2003, published 2006)", "key": {"[1]": {"experiment": "Plasma concentrations of oxycodone, oxymorphone, noroxycodone, naltrexone and 6β-naltrexol by solid phase extraction LC-MS/MS", "from_the_text": "Patients with moderate-to-severe pain due to osteoarthritis of the hip or knee were randomly assigned to one of four treatment groups as shown in Table 3 of Example 1. Plasma samples were obtained for each patient at the beginning of Weeks 1, 2, 3 and at the end of dosing during Week 3.\nFor the analysis of linearity and dose proportionality, linear equation coefficients were obtained by averaging patient-specific slopes and intercepts obtained by within-patient least squares regression. This was done to account for the correlation among the repeated measurements due to the patient's contributing data at each dose level. The resulting slopes among treatment groups were compared by one-way analysis of variance (ANOVA), and a one-sample t-test assessed the common slope's difference from zero. A measure of deviation from linearity was constructed as the difference between the concentration at the middle dose versus the average of the concentrations at the lower and higher doses. Due to equal spacing of doses, this measure has expectation zero under the hypothesis of linearity. As above, ANOVA and t-tests were used to assess linearity.\nTo achieve symmetry, modified log transformations were used."}, "[2]": {"test_system": "patients with moderate to severe chronic pain due to osteoarthritis of the hip or knee", "experiment": "Emax composite model of 6β-naltrexol plasma concentration versus percent change in pain intensity", "settings": "for EC51 Estimate / EC52 Estimate / Emax1 Estimate / Emax2 Estimate: WinNonlin", "protocol": "As discussed in more detail below, the percent change in pain intensity was the drug effect used in a modeling analysis of plasma concentration vs. drug effect.\nThe plasma concentration-effect data were fit to the Emax composite model using the software program WinNonlin®(commercially available from Pharsight Corporation of Mountain View, Calif.) and the command files developed by Gabrielsson et al. The plasma concentration-effect data represented as circles in FIG. 11 were evaluated mathematically and the plasma concentration-effect curve shown in FIG. 11 was determined by the program and command files. Similarly, the program and command files were used to determine the plasma concentration-effect curve shown in FIG. 12 based on the data represented as circles in FIG. 12.\nThe computer output (printout) of this process included EC51 and EC52 parameters, as well as parameters reflecting statistical evaluation of the data, such as coefficient of variation (CV %).\nThese parameters are based on the data for 6β-naltrexol plasma concentrations and reduction in pain from baseline pain intensity to final pain intensity from all subjects for whom plasma concentration data was obtained as described herein. These parameters are based on data from subjects receiving the BID dosing regimens and subjects receiving the QID dosing regimen. Estimate refers to the value estimated by the WinNonlin® program and command file for relating plasma concentrations to the pharmacodynamic effects such as percent reduction in pain intensity.\nThese parameters are based on the data (6β-naltrexol plasma concentrations and percent reduction in pain intensity) for subjects receiving BID dosing regimens."}, "[3]": {"settings": "naltrexone hydrochloride in solution mixed with croscarmellose sodium in suspension; cited from earlier work"}, "[4]": {"settings": "Total (BID and QID) data, curve of FIG. 11"}}}
{"smiles": "Oc1ccc2c3c1O[C@H]1[C@H](O)CC[C@@]4(O)[C@@H](C2)N(CC2CC2)CC[C@]314", "note": "[6β-naltrexol]", "values": [{"measurement": "Plasma concentrations over the course of the study (sampled at the end of each treatment week)", "setting": "[1]; FIG. 7, combination drug BID and QID", "value": "remained constant throughout the study"}, {"measurement": "EC51 Estimate", "setting": "[2]; BID data, curve of FIG. 12", "value": 14.0, "unit": "pg/mL"}, {"measurement": "EC52 Estimate", "setting": "[2]; BID data, curve of FIG. 12", "value": 0.422, "unit": "pg/mL"}, {"measurement": "Emax1 Estimate", "setting": "[2]; BID data, curve of FIG. 12", "value": 27.0, "unit": "units"}, {"measurement": "Emax2 Estimate", "setting": "[2]; BID data, curve of FIG. 12", "value": 76.3, "unit": "units"}, {"measurement": "EC52 parameter, 6β-naltrexol plasma concentration", "setting": "[2]; Emax composite model, total (BID and QID) data, Table 26, effect = percent reduction in pain intensity, 6β-naltrexol as surrogate for naltrexone", "value": "about 0.439 μg/ml"}, {"measurement": "EC51 Estimate", "setting": "[2]; [4]", "value": 14.4, "unit": "pg/mL"}, {"measurement": "EC52 Estimate", "setting": "[2]; [4]", "value": 0.439, "unit": "pg/mL"}, {"measurement": "Emax1 Estimate", "setting": "[2]; [4]", "value": 26.8, "unit": "units"}, {"measurement": "Emax2 Estimate", "setting": "[2]; [4]", "value": 79.7, "unit": "units"}]}
{"smiles": "O=C1CC[C@@]2(O)[C@H]3Cc4ccc(O)c5c4[C@@]2(CCN3CC2CC2)[C@H]1O5", "note": "[naltrexone]", "values": [{"measurement": "Fraction of naltrexone hydrochloride bound by croscarmellose sodium", "setting": "[3]", "value": "more than 90%"}]}
{"smiles": "CN1CC[C@]23c4c5ccc(O)c4O[C@H]2C(=O)CC[C@@]3(O)[C@H]1C5", "note": "[oxymorphone]", "values": [{"measurement": "Mean plasma concentration versus dose level over the course of the study", "setting": "[1]; FIGS. 1 and 2", "value": "increased linearly with increasing dose levels"}, {"measurement": "Plasma concentration of oxymorphone (ng/mL) versus dose of oxycodone (mg/day): slope of linear equation", "setting": "[1]; average of patient-specific regressions, slope p<0.001, t-test", "value": 0.007153}, {"measurement": "Plasma concentration of oxymorphone versus dose of oxycodone (mg/day): intercept of linear equation", "setting": "[1]; average of patient-specific within-patient least squares regressions, all active treatments", "value": 0.0607, "unit": "ng/mL"}]}
